# From ChEMBL document CHEMBL2321785, “Synthesis and SAR study of new thiazole derivatives as vascular adhesion protein-1 (VAP-1) inhibitors for the treatment of diabetic macular edema” (Bioorg Med Chem, 2013)
# The source made the active and inactive calls. The calls are words filed in the database; no cut-off is given here.
# What was measured:
# [1] = biological target: T1, Amine oxidase [copper-containing] 3 (Homo sapiens, UniProt Q16853); assay: Inhibition of human VAP1 expressed in CHO cells using [14C]-benzylamine as substrate incubated for 30 mins prior to substrate addition measured after 1 hr by scintillation spectrophotometric analysis; assay type: cell-based
# T1 sequence (Q16853 whole entry): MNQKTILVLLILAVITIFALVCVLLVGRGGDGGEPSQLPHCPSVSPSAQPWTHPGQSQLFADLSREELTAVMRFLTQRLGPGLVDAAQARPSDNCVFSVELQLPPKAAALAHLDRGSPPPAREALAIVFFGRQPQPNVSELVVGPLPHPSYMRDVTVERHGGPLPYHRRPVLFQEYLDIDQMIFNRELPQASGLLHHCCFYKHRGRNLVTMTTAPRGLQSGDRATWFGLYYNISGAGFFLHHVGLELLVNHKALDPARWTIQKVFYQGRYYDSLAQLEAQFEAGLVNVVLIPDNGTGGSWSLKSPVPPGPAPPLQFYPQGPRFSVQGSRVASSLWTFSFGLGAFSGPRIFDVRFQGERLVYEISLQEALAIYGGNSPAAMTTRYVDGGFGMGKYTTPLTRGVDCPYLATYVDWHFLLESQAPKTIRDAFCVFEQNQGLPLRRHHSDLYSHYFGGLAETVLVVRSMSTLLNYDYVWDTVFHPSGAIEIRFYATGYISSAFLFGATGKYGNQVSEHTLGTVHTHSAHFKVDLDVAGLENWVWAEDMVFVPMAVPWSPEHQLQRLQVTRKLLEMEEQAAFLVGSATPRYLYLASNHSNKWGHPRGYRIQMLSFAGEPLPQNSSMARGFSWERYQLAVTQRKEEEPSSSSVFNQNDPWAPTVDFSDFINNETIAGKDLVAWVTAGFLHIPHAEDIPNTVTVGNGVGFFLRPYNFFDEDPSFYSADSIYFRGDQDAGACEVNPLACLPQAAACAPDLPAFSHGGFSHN
# Rattus norvegicus [2] = assay: Inhibition of VAP1 in streptozotocin-induced Wistar rat diabetic model using [14C]-benzylamine as substrate assessed as [14C]-benzylaldehyde formation in plasma at >/= 0.1 mg/kg, sc after 1 hr by liquid scintillation counting analysis; assay type: functional, organism-based; design: dose 0.1 mg/kg
# [3] = biological target: T2, Amine oxidase [flavin-containing] B (Homo sapiens, UniProt P27338); assay: Inhibition of human MAOB expressed in CHO cells using benzylamine as substrate after 1 hr by fluorometric assay; assay type: cell-based
# T2 sequence (P27338 whole entry): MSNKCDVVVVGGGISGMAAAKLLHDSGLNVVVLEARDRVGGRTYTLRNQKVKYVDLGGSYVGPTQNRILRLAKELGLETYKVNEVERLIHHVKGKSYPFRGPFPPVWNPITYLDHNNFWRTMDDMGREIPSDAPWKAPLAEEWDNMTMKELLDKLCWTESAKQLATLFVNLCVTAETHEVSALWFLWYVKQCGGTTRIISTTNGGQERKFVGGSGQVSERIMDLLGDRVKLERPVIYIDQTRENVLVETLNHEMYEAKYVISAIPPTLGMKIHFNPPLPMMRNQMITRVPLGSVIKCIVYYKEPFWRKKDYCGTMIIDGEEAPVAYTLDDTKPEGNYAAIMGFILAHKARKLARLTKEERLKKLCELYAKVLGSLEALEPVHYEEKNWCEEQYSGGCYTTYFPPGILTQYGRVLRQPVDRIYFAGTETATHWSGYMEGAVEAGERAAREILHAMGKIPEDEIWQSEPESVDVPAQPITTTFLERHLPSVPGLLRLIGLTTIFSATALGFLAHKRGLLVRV
# Plasma [4] = assay: Plasma concentration in sc dosed Wistar rat after 0.5 to 6 hrs by LC-MS analysis; assay type: ADME, organism-based; conditions: in vivo
# [5] = Selectivity ratio of IC50 for human VAP1 to IC50 for rat VAP1
# Rattus norvegicus [6] = assay: Inhibition of VAP1-mediated ocular permeability in streptozotocin-induced Sprague-Dawley rat diabetic model assessed as fluorescein leakage in vitreous at 1 to 10 mg/kg, sc administered daily for 4 weeks post streptozotocin challenge measured 24 hrs post last dose by fluorescence assay; assay type: functional, organism-based
# Plasma [7] = assay: Plasma concentration in Wistar rat at 0.1 mg/kg, sc after 0.5 to 6 hrs by LC-MS analysis; assay type: ADME, organism-based; design: dose 0.1 mg/kg, route subcutaneous; conditions: in vivo
# Homo sapiens [8] = organism: Homo sapiens; assay: Selectivity ratio of IC50 for human DAO to IC50 for human VAP1
# Homo sapiens [9] = organism: Homo sapiens; assay: Selectivity ratio of IC50 for human MAOB to IC50 for human VAP1
# [10] = biological target: T3, Amine oxidase [copper-containing] 3 (Rattus norvegicus, UniProt O08590); assay: Inhibition of rat VAP1 expressed in CHO cells using [14C]-benzylamine as substrate incubated for 30 mins prior to substrate addition measured after 1 hr by scintillation spectrophotometric analysis; assay type: cell-based
# T3 sequence (O08590 whole entry): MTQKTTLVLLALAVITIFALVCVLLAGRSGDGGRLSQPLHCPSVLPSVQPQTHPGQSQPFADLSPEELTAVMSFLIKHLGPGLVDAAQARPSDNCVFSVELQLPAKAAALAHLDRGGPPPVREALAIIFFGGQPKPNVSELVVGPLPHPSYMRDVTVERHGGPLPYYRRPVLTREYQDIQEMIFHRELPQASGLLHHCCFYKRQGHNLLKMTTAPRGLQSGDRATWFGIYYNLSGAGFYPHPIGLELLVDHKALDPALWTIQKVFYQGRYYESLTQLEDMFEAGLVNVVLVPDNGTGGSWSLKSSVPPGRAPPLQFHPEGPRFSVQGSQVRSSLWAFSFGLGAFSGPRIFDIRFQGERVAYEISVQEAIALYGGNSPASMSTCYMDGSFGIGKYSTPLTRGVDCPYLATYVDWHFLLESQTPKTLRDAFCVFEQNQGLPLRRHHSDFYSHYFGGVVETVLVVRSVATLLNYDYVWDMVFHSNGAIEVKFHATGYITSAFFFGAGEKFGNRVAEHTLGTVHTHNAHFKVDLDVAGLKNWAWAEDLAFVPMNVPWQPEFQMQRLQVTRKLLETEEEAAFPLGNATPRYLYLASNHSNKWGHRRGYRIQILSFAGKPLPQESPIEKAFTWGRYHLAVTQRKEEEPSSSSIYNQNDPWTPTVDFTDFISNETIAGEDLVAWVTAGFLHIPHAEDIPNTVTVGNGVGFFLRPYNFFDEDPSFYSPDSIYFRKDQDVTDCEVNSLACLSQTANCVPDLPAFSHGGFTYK
structure (smiles),measurement,setting,value
CC(=O)Nc1nc(CCc2ccc(NC3=NCCN3)cc2)cs1,IC50,[1],3 µM
CCNC(=N)Nc1ccc(CCc2csc(NC(C)=O)n2)cc1,IC50,[1],0.68 µM
CC(=O)Nc1nc(CCc2ccc(NC(N)=S)cc2)cs1,IC50,[1],> 10 µM
CC(C)C(=O)Nc1nc(CCc2ccc(NC(=N)N)cc2)cs1,IC50,[1],0.52 µM
CC(=O)Nc1nc(CCc2ccc(CCN)cc2)cs1,IC50,[1],5 µM
CC(=O)Nc1nc(CCc2ccc(N=C(N)NC(C)C)cc2)cs1,IC50,[1],1.1 µM
CC(=O)Nc1nc(CCc2ccc(NC=N)cc2)cs1,IC50,[1],0.73 µM
N=C(N)Nc1ccc(CCc2csc(NC(=O)c3ccccc3)n2)cc1,IC50,[1],11 µM
N=C(N)Nc1ccc(CCc2csc(N)n2)cc1,IC50,[1],22 µM
CC(=O)Nc1nc(Cc2ccc(NC(=N)N)cc2)cs1,IC50,[1],42 µM
CC(=O)Nc1ccc(CCc2ccc(NC(=N)N)cc2)cc1,IC50,[1],18 µM
CC(=O)Nc1nc(CCc2ccc(NC(=N)N(C)C)cc2)cs1,IC50,[1],> 100 µM
CC(=O)Nc1ncc(CCc2ccc(NC(=N)N)cc2)s1,IC50,[1],9.6 µM
CC(=O)Nc1nc(CCCc2ccc(NC(=N)N)cc2)cs1,IC50,[1],8.8 µM
CSC(=N)Nc1ccc(CCc2csc(NC(C)=O)n2)cc1,IC50,[1],1.1 µM
CC(=O)Nc1cccc(CCc2ccc(NC(=N)N)cc2)c1,IC50,[1],15 µM
CC(=O)Nc1nc(CCc2ccc(NC3=NCCS3)cc2)cs1,IC50,[1],3.5 µM
CC(=O)Nc1nc(CCc2ccc(N)cc2)cs1,IC50,[1],> 100 µM
CC(=O)Nc1nc(CCc2ccc(NC(=N)N)cc2)cs1,inhibition,Rattus norvegicus [2],Active
same,IC50,[3],> 100 µM
same,Cp,Plasma [4],Dose-dependent effect
same,Ratio IC50,[5],16
same,IC50,[1],0.23 µM
same,inhibition,Rattus norvegicus [6],Active
same,Cp,Plasma [7],21.8 ng/mL
same,Ratio IC50,Homo sapiens [8],> 435
same,Ratio IC50,Homo sapiens [9],> 435
same,IC50,[10],0.014 µM
CC(=O)Nc1nc(-c2ccc(CCNC(=N)N)cc2)cs1,IC50,[1],0.33 µM
